Assay results taken from patent US10519423B1, “High efficiency reprogramming of fibroblasts into cardiomyocytes” (The Regents of the University of Colorado, a body corporate, priority 2015, dated 2019).

How the values were obtained:
Assay type in all cases: cell-based, mouse
[1] = test system: adult tail-tip fibroblasts (ATTFs); assay: Counting of spontaneously beating cells in adult tail-tip fibroblasts; details: GHMT2m-ATTFs treated with A83-01 (0.5 μM)
Protocol: (§1) Hearts or skinned tails from adult C57BL6 mice were cut into small pieces with ˜1 mm diameter. The biopsies were seeded on a 10 cm culture dish and incubated with 10 mL of growth medium (DMEM/Hi glucose (Hyclone), 10% FBS (Gemini:), 1.1% Penicillin-Streptomycin (Gibco) and 1.1% GlutaMAX supplement (Gibco)) at 37° C. with 5% CO2. TTFs migrated out of the biopsies after 3 days. The media were changed every other day. Once the TTFs have reached a 70-80% confluence, the cells were harvested and stored for future use.
(§2) Fibroblasts were plated on tissue culture dishes pre-coated with SureCoat (Cellutron) at a density of ˜40 cells/mm^2 before transduction. The fibroblast growth medium was replaced with freshly made viral mixture containing polybrene (Sigma). Twenty-four hours later, fibroblasts were infected again with viral mixture containing polybrene. Twenty fours later, the viral medium was replaced with induction medium, composed of DMEM/199 (4:1) (Gibco), 10% FBS (Gemini), 5% horse serum(Gemini), antibiotics (Gibco), 1× non-essential amino acids (Gibco), 1× essential amino acids (Gibco), 1× B-27 (Gibco), 1× insulin-selenium-transferin (Gibco), 1× vitamin mixture (Gibco), and 1× sodium pyruvate (Gibco). Medium was changed every two-three days until cells were examined.
Cells in 60 mm dishes were examined under an EVOS® FL Color imaging system (Life Technologies) at 25° C. Beating cells were counted at a field with an area of 0.89 mm^2. Ten to fifteen fields in each dish were randomly chosen.

[2] = test system: adult tail-tip fibroblasts (ATTFs); assay: Immunocytochemistry for cTnT and α-actinin in adult tail-tip fibroblasts; details: GHMT2m-infected ATTFs; DMSO or A83-01 for 2 weeks
Protocol: as §1, §2
(§3) Cells were fixed in 2% PFA for 15 min on ice then washed with DPBS (Gibco) three times at RT. […]

MEFs [3] = assay: Pro-fibrotic marker expression in infected MEFs (qPCR, Western blot, αSMA stress fiber immunostaining); details: A83-01 0.5 μM, day 7
Protocol: (§4) Cells were harvested in TRizol reagent (Ambion) for RNA isolation. RNA was extracted with the RNeasy® Plus Universal Mini Kit (Qiagen). RT-PCR was performed using the Superscript III first-strand synthesis system (Invitrogen). qPCR was performed using the SYBR® Green PCR master mix (Applied Biosystems) or StepOne™ Real-Time PCR Systems (Applied Biosystems). Primers are listed in Supplementary Table 1. Ryr2 (Mm00465877_m1) and Myh7 (Mm01319006_91) are Taqman probes (Life technologies).
Samples were placed on ice and washed with ice-cold DPBS (Gibco) twice, then ice-cold lysis buffer (150 mM NaCl, 50 mM Tris-Cl pH7.4, 1 mM EDTA, 1% Triton, Complete mini tablet (Roche), 1 mM PMSF freshly added before use) was added to the cells. Cells were scraped and transferred to a pre-chilled 1.5 Eppendorf tube and frozen in liquid N2. Before used, the lysate was thawed on ice. The lysate was passed carefully through a 25 g needle for 5 times and then centrifuge at 14,000 rpm for 15 minutes at 4° C. The supernatant was transferred to a new 1.5 ml tube. The protein concentration was measured and 20 ug of lysate for each sample was loaded to SDSPAGE. Proteins were then transferred to PVDF. The PDVF membrane was blocked in 2.5% BSA in 1×TBST for 30 mins at room temperature (RT). The primary antibody was added in blocking buffer for 60 mins at RT. Wash in 1×TBST (20 mM Tris-Cl, pH7.4; 150 mM NaCl; 0.1% Tween20) three times at RT, each for 15 mins. The Secondary antibody was added in blocking buffer for 45 mins at RT. The membrane was washed in 1 XTBST for 15 mins, 1×TBST for 5 mins, then TBS (10 mM Tris-Cl pH8, 150 mM NaCl) for 5 mins. The membrane was resolved with Super Signal® West Pico (34080) or Femto (34095) substrate (Thermo Scientfic). The primary antibodies include: Snail (Cell Signaling, 3879S, 1:1000), Slug (Cell Signaling, 9585S, 1:1000), P-Smad2 (Cell Signaling, 23108P, 1:1000), Smad2 (Cell Signaling, 5339, 1:1000), αSMA (Santa Cruz, SC-32251, 1:10000), cTn1 (Phospho Solutions, 2010-TNI, 1:1000), cTnT (Sigma, T6277, 1:1000), and GAPDH (Ambion, AM4300). The secondary antibodies include: Goat Anti-Mouse IgG (H+L) (Southern Biotech, 1031-05, 1:2000). Goat Anti-Rabbit IgG (Life Technologies, 65-6120, 1:2000). For separation of α- and β-myosin heavy chain, samples were run by modified 6% SDS-PAGE (separating acrylamide/bis ratio 1:100; resolving gel buffer pH 9.0; running gel buffer pH 8.2; β-mercaptoethanol 600 μl/l inner gel buffer). Gels were run overnight at 4° C. and stained with BioSafe Coomassie Blue protein stain.
(§5) Cells were fixed in 2% PFA for 15 min on ice then washed with DPBS (Gibco) three times at RT. The cells were permeabilized in 0.5% Triton X-100 (made in PBS) for 20 min at RT. After washing the cells with DPBS (Gibco), cells were incubated with the primary antibody against α-actinin (Sigma A7811, 1:300), Connexin 43 (Sigma, C6219, 1:500), Troponin T (Thermo Scientific MS-245-P, 1:500), α-SMA (Santa Cruz Biotechnology, SC-32251, 1:800), Myl2 (Proteintech, 10906-1-AP, 1:200), or Myl7 (Proteintech, 17283-1-AP, 1:200) in 10% FBS(Gemini) in DPBS for 1 hour at RT. Cells were wash with DPBS three times, 5 min each. Cell were incubated with the secondary antibody (Alexa Fluor 555 Molecular Probes A21422, 1:1000) and Hoechest (Molecular Probes 33342, 1:5000) for 30 mins at RT.

[4] = test system: adult cardiac fibroblasts (ACFs); assay: qPCR of cardiac genes in adult cardiac fibroblasts; details: infected ACFs treated with A83-01 for 4 weeks
Protocol: as §1, §4

MEFs [5] = assay: qPCR of cardiac genes in reprogramming MEFs; details: reprogramming MEFs treated with A83-01 for 5 days, day 7
Protocol: as §4

[6] = test system: adult cardiac fibroblasts (ACFs); assay: Immunocytochemistry for cTnT and α-actinin in adult cardiac fibroblasts; details: by 4 weeks, without or with A83-01
Protocol: as §1, §2, §3

TTFs = assay: qPCR of cardiac genes in tail-tip fibroblasts; details: GHMT2m-TTFs treated with A83-01 for 4 weeks
Protocol: as §1, §4

MEFs [7] = assay: Immunocytochemistry for cTnT and α-actinin in infected MEFs; details: day 14, without or with A83-01
Protocol: as §2, §5

With Cc1cccc(-c2nn(C(=S)Nc3ccccc3)cc2-c2ccnc3ccccc23)n1 [A83-01] the “time by which spontaneously beating cells appeared” value [1] was 2-3 weeks, the spontaneously contracting cells ([1]; by 4 weeks) was “about 4%” and the “spontaneously contracting cells per cm^2” value ([1]; by 4 weeks) was “approximately 300 cells per cm^2”. The “adult TTFs positive for cTnT and α-actinin” value [2] was “approximately 30%”, the “expression of Fn-EDA, Col1a1 and Col3a1, and formation of αSMA+ stress fibers” value (MEFs [3]; GHMT- and GHMT2m-infected cultures) was “inhibited” and the “phosphorylation of Smad2” value (MEFs [3]; MEFs) was “decreased”. For the same compound, the “expression of other cardiac genes, Actc1, Myh6 and Ryr2” value [4] was “enhanced”, the “program of cardiomyocyte gene expression” value (MEFs [5]) was “enhanced” and the “ACFs positive for cTnT” value ([6]; GHMT2m-infected ACFs) was “approximately 18%”. For the same compound, the “ACFs positive for cTnT” value ([6]; GHMT-infected ACFs) was “approximately 10%”, the cardiomyocyte gene expression (TTFs) was “Enhanced” and the “proportion of cTnT+ cells (immunostaining)” value (MEFs [7]; GHMT2m-cultures of MEFs) was about 67%. The “proportion of α-actinin+ cells (immunostaining)” value (MEFs [7]; GHMT2m-cultures of MEFs) was about 64%, the “proportion of cTnT+ cells (immunostaining)” value (MEFs [7]; GHMT-cultures of MEFs) was “approximately 58%” and the “proportion of α-actinin+ cells (immunostaining)” value (MEFs [7]; GHMT-cultures of MEFs) was “approximately 57%”.
